The text below walks through data of ChEMBL document CHEMBL1122192, “Nitro and amino derivatives of lucanthone as antitumor agents” (1982).

In experiment [1] the test system is P388. The experiment in a line: In vivo antitumor activity against P-388 lymphocytic leukemia at the dose of 50 mg/kg. It counts as functional, Mus musculus.
Experiment [2] relates to P388. The experiment in a line: In vivo antitumor activity against P-388 lymphocytic leukemia at the dose of 200 mg/kg; Toxic. It counts as functional, organism-based. Further details: dose 200 mg/kg. The following applies: Mus musculus.
The subject of experiment [3] is P388. The experiment in a line: In vivo antitumor activity against P-388 lymphocytic leukemia at the dose of 100 mg/kg. Format: functional, Mus musculus.
The test system of experiment [4] is P388. Put plainly: In vivo antitumor activity against P-388 lymphocytic leukemia at the dose of 25 mg/kg. Format: functional, Mus musculus.
In experiment [5] the test system is P388. Put plainly: In vivo antitumor activity against P-388 lymphocytic leukemia at the dose of 12.5 mg/kg. Format: functional, Mus musculus.
Experiment [6] concerns P388. The experiment in a line: In vivo antitumor activity against P-388 lymphocytic leukemia at the dose of 200 mg/kg. It counts as functional, Mus musculus.

Regarding `CN(C)CCNc1ccc(N)c2sc3ccccc3c(=O)c12`, the T/C is 100 in experiment [1], “Toxic” in experiment [2] and 121 in experiment [3].

In the case of `O=c1c2ccccc2sc2c([N+](=O)[O-])ccc(NCCNCCO)c12`, the T/C in experiment [1] was determined as 120; in experiment [4], 141; in experiment [5], 133.

As for `CCN(CC)CCNc1ccc(C)c2sc3ccc(N)cc3c(=O)c12`, the T/C in experiment [1] is listed as 138; in experiment [4], 103; in experiment [5], 120.

Take `CN(C)CCNc1ccc([N+](=O)[O-])c2sc3ccccc3c(=O)c12`: the T/C in experiment [1] worked out at 143; in experiment [4], 135; in experiment [5] it was 114; in experiment [3], 103.

As for `CCN(CC)CCNc1ccc([N+](=O)[O-])c2sc3ccccc3c(=O)c12`, the values for the T/C in experiment [6], in experiment [1] and in experiment [3] were 178, 142 and 145, respectively.

Turning to `Nc1ccc(NCCNCCO)c2c(=O)c3ccccc3sc12`, in experiment [1], the T/C is 132.

Turning to `CCN(CC)CCNc1ccc(N)c2sc3ccccc3c(=O)c12`, the values for the T/C in experiment [6], in experiment [1] and in experiment [3] were 125, 107 and 122, respectively.

As to `CCN(CC)CCNc1ccc(C)c2sc3c(N)cccc3c(=O)c12`, the T/C in experiment [6] is recorded as 123; in experiment [1] it was 100; in experiment [3], 113.
